In patent US8959984B2, “Proteome-wide quantification of small molecule binding to cellular target proteins” (priority 2007, dated 2015):
pKi: −log10 of the molar value.

Tests used:
Experiment in all cases: binding to AX14596 beads (HeLa lysate, SILAC MS)
PKD2 (PRKD2) = PKD2 (PRKD2) (Homo sapiens, UniProt Q9BZL6)
[1] = target: p38a (MAPK14, IPI00002857) (Homo sapiens, UniProt Q16539)
EphB4 = EphB4 (Homo sapiens, UniProt P54760)
CaMK2g (CAMK2G) = CaMK2g (CAMK2G) (Homo sapiens, UniProt Q13555)
[2] = target: p38a (MAPK14, IPI00221141) (Homo sapiens, UniProt Q16539)
Sequence of p38a (MAPK14, IPI00221141) (Q16539 1-360 isoform Q16539-2): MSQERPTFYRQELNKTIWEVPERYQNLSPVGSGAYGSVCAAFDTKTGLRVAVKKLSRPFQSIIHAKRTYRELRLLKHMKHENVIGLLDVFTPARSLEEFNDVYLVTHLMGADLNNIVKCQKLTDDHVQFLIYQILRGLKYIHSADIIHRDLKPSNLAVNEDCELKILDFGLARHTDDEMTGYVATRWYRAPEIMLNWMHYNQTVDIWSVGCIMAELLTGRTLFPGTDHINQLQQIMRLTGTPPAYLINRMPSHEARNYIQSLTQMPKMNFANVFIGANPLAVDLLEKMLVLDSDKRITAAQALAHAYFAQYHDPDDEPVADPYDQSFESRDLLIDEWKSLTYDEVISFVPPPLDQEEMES

YES (YES1) = target: T1, YES (YES1) (Homo sapiens, UniProt P07947)
T1 construct: endogenous in cells; host or cells: HeLa S3
T1 sequence (P07947 whole entry): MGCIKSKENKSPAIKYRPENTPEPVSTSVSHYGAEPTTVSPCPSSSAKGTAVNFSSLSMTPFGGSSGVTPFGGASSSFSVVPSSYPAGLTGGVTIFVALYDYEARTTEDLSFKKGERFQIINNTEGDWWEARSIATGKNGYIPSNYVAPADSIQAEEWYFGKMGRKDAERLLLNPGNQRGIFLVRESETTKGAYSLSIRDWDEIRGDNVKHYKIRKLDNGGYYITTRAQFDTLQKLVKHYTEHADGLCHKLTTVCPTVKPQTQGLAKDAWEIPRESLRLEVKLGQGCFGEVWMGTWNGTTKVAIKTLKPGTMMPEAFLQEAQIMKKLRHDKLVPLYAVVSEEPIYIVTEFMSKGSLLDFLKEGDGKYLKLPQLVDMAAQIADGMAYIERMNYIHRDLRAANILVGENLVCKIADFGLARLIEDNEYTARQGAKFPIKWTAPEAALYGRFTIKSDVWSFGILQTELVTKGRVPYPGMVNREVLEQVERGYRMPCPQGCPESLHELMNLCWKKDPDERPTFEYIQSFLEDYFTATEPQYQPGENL

BLMH = target: T2, BLMH (Homo sapiens, UniProt Q13867)
T2 construct: endogenous in cells; host or cells: HeLa S3
T2 sequence (Q13867 1-455): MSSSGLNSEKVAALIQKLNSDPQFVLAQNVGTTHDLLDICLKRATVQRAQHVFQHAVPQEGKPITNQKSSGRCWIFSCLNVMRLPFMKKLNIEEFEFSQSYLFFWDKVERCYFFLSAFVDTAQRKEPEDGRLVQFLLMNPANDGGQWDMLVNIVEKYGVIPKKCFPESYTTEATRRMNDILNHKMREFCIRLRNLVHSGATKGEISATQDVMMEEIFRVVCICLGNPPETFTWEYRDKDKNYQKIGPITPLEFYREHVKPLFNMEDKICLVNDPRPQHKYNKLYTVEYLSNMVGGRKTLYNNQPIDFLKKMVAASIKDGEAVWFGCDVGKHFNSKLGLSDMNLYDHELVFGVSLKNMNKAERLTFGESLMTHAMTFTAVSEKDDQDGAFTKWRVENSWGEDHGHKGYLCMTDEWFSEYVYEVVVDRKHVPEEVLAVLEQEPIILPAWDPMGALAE

Sequence of EphB4 (P54760 16-987): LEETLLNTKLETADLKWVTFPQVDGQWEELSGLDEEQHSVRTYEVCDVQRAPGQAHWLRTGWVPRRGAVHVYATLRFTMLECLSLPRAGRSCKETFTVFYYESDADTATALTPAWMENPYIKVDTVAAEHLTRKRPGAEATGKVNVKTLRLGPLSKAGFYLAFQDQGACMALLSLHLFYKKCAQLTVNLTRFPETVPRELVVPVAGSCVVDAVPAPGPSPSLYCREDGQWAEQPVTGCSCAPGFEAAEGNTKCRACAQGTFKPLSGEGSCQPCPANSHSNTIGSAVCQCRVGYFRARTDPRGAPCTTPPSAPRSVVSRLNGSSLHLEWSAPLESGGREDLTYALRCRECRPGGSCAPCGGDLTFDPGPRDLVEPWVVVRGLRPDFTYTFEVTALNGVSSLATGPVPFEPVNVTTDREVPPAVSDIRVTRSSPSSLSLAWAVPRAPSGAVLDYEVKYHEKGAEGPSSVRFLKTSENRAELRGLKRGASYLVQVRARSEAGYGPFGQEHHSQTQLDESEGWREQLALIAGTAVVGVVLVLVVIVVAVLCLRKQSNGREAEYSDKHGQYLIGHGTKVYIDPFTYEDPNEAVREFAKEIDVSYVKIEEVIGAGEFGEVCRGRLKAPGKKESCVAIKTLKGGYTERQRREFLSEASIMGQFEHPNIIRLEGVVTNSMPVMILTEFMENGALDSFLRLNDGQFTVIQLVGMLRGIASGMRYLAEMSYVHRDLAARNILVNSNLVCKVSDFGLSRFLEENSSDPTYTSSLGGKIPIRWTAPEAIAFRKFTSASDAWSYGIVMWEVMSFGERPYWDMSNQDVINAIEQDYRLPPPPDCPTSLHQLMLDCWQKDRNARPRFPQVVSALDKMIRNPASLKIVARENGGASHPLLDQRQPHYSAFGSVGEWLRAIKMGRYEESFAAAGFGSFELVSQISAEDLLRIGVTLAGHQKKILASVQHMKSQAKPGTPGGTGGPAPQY
Sequence of CaMK2g (CAMK2G) (Q13555 whole entry): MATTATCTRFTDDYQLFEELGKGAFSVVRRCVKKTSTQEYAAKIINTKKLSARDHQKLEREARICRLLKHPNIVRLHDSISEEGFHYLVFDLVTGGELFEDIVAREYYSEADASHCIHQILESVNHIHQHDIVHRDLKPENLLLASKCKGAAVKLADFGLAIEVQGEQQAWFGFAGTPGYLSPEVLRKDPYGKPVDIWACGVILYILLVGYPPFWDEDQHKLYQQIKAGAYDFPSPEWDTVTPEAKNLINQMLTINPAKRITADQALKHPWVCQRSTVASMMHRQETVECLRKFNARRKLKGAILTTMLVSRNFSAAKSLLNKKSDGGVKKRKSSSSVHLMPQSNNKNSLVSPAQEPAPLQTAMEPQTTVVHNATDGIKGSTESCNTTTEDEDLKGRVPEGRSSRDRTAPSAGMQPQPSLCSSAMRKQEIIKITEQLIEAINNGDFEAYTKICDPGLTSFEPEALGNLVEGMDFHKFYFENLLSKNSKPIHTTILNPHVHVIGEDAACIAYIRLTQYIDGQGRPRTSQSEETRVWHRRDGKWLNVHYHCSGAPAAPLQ
Sequence of PKD2 (PRKD2) (Q9BZL6 whole entry): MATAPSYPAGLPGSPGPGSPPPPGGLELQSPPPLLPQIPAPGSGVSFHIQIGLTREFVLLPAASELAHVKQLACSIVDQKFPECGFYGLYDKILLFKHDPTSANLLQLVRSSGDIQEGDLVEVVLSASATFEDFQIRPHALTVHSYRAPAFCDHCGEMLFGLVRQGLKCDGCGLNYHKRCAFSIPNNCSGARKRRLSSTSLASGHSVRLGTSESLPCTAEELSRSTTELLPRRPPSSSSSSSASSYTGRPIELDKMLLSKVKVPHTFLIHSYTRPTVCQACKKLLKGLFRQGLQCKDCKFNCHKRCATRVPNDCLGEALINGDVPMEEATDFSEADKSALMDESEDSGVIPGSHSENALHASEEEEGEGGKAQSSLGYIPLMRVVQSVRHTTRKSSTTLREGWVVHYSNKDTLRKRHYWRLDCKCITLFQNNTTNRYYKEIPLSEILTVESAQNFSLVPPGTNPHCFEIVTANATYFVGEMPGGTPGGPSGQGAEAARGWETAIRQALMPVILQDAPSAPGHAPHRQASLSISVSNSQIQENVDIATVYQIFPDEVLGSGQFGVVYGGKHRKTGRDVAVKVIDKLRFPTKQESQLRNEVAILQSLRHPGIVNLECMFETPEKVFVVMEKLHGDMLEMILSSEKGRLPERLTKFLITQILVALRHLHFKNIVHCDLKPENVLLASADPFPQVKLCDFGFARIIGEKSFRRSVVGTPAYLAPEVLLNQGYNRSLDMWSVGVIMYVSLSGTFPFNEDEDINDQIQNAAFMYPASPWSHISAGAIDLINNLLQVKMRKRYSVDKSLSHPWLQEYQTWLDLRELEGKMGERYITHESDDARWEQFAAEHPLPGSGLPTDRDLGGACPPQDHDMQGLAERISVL
Sequence of p38a (MAPK14, IPI00002857) (Q16539 whole entry): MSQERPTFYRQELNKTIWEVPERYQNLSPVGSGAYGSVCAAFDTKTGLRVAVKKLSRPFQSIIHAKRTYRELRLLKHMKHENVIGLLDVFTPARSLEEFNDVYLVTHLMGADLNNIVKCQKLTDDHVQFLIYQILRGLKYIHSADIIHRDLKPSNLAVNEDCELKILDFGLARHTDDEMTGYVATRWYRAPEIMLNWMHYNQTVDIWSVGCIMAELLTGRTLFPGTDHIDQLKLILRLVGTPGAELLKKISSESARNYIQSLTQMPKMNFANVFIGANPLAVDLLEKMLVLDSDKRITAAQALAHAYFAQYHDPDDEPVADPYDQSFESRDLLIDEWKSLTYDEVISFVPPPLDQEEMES

SMILES: COc1cc2ncnc(Nc3ccc(F)c(Cl)c3)c2cc1OCCCN [AX14596]
- pKi (PKD2 (PRKD2)): 3.41
- r (3 mg/1 mg lysate) (PKD2 (PRKD2)): 2.53
- r (5 h/2.5 h inc. time) (PKD2 (PRKD2)): 0.96
- rAVERAGE (2. inc/1. inc) (PKD2 (PRKD2)): 0.79
- rAVERAGE (control/1. inc) (PKD2 (PRKD2)): 0.08
- pKi [1]: 3.48
- r (3 mg/1 mg lysate) [1]: 2.74
- r (5 h/2.5 h inc. time) [1]: 1.15
- rAVERAGE (2. inc/1. inc) [1]: 0.77
- rAVERAGE (control/1. inc) [1]: 0.06
- pKi (EphB4): 3.62
- r (3 mg/1 mg lysate) (EphB4): 2.65
- r (5 h/2.5 h inc. time) (EphB4): 0.96
- rAVERAGE (2. inc/1. inc) (EphB4): 0.71
- rAVERAGE (control/1. inc) (EphB4): 0.05
- % BOUND (EphB4; bound to AX14596 beads): 29%
- pKi (CaMK2g (CAMK2G)): 4.03
- r (3 mg/1 mg lysate) (CaMK2g (CAMK2G)): 2.45
- r (5 h/2.5 h inc. time) (CaMK2g (CAMK2G)): 1.17
- rAVERAGE (2. inc/1. inc) (CaMK2g (CAMK2G)): 0.48
- rAVERAGE (control/1. inc) (CaMK2g (CAMK2G)): 0.04
- pKi [2]: 3.78
- r (3 mg/1 mg lysate) [2]: 2.87
- rAVERAGE (2. inc/1. inc) [2]: 0.63
- rAVERAGE (control/1. inc) [2]: 0.03
- pKi (YES (YES1)): 3.18
- r (3 mg/1 mg lysate) (YES (YES1)): 2.03
- r (5 h/2.5 h inc. time) (YES (YES1)): 0.98
- rAVERAGE (2. inc/1. inc) (YES (YES1)): 0.87
- rAVERAGE (control/1. inc) (YES (YES1)): 0.05
- % BOUND (YES (YES1); bound to AX14596 beads): 13%
- pKi (BLMH): 4.27
- r (3 mg/1 mg lysate) (BLMH): 11.91
- r (5 h/2.5 h inc. time) (BLMH): 1.31
- rAVERAGE (2. inc/1. inc) (BLMH): 0.35
- rAVERAGE (control/1. inc) (BLMH): 0.08
